Our source for the kinase still bound, per cent of control and IC50 values is the kinase profiling compilation of Christmann-Franck et al. (2016).

The target of one assay is CDC42BPB (human) (UniProt Q9Y5S2). In words: KINOMEscan competition binding. Conditions: compound 10.0 µM.
The next assay concerns the target CSNK2A1 (human) (UniProt P68400). The experiment in a line: KINOMEscan competition binding. Conditions: compound 10.0 µM.
In another assay the target is CSNK2A2 (human) (UniProt P19784). The experiment in a line: KINOMEscan competition binding. Conditions: compound 10.0 µM.
In another assay the target is DDR1 (human) (UniProt Q08345). The experiment in a line: KINOMEscan competition binding. Particulars: compound 10.0 µM.
Another assay has as its target MAPK8 (human) (UniProt P45983). In words: KINOMEscan competition binding. Conditions: compound 10.0 µM.
A further assay addresses MKNK2 (human) (UniProt Q9HBH9). The experiment in a line: KINOMEscan competition binding. Particulars: compound 10.0 µM.
Assay [1] addresses PIM1 (human) (UniProt P11309). In words: KINOMEscan competition binding. Particulars: compound 10.0 µM.
For assay [2], the target named is PIM2 (human) (UniProt Q9P1W9). The experiment in a line: KINOMEscan competition binding. Particulars: compound 10.0 µM.
Sequence of PIM2 (human) (Q9P1W9 whole entry, looked up): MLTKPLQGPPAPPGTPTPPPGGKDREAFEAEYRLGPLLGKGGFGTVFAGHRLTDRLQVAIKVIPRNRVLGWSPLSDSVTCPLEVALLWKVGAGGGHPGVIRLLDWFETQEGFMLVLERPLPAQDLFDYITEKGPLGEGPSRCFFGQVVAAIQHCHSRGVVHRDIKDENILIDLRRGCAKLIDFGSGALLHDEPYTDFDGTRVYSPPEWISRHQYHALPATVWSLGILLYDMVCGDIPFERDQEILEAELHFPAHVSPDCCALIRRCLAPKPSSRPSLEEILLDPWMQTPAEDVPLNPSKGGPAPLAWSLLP
The next assay concerns the target PIM3 (human) (UniProt Q86V86). In words: KINOMEscan competition binding. Conditions: compound 10.0 µM.
The next assay concerns the target RPS6KA1 KD2 (human) (UniProt Q15418). In words: KINOMEscan competition binding. Particulars: compound 10.0 µM.
Another assay concerns the target RPS6KA2 KD2 (human) (UniProt Q15349). In words: KINOMEscan competition binding. Conditions: compound 10.0 µM.
The next assay deals with RPS6KA6 KD2 (human) (UniProt Q9UK32). In words: KINOMEscan competition binding. Conditions: compound 10.0 µM.
Sequence of RPS6KA6 KD2 (human) (Q9UK32 whole entry, looked up): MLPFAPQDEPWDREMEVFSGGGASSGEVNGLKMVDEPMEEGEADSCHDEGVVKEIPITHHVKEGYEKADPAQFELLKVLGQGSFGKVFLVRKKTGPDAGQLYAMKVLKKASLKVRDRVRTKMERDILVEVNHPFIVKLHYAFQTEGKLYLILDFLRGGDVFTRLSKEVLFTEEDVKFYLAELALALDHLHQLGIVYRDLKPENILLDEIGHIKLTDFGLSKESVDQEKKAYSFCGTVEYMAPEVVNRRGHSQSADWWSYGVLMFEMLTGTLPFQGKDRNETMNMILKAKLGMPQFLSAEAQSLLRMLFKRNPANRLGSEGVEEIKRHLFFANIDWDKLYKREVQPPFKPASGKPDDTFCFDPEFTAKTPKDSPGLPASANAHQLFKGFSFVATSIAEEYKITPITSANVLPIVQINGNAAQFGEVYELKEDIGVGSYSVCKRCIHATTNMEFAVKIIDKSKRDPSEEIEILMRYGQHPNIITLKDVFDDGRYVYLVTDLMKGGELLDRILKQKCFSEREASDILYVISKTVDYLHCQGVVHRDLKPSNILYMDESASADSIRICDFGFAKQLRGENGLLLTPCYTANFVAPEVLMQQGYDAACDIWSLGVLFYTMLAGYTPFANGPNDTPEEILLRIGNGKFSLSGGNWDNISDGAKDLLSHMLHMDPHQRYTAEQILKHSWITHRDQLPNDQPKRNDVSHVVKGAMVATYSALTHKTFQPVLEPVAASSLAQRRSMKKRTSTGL
The next assay addresses STK17B (human) (UniProt O94768). The experiment in a line: KINOMEscan competition binding. Conditions: compound 10.0 µM.
A further assay concerns the target STK24 (human) (UniProt Q9Y6E0). The experiment in a line: KINOMEscan competition binding. Particulars: compound 10.0 µM.
The target in a further assay is TLK1 (human) (UniProt Q9UKI8). The experiment in a line: KINOMEscan competition binding. Particulars: compound 10.0 µM.
In assay [3] the target is PIM1 (human) (UniProt P11309). The experiment in a line: SelectScreen, TR FRET.
Sequence of PIM1 (human) (P11309 whole entry, looked up): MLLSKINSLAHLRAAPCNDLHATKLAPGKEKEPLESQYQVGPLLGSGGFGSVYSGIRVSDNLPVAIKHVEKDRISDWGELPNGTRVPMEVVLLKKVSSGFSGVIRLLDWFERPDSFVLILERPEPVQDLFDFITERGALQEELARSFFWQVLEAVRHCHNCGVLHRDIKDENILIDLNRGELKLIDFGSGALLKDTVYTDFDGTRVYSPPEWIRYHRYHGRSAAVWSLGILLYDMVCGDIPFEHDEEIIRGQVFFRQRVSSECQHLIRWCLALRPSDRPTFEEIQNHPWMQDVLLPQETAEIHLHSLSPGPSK
Assay [4] concerns the target PIM2 (human) (UniProt Q9P1W9). In words: SelectScreen, TR FRET.
Another assay has as its target AAK1 (human) (UniProt Q2M2I8). The experiment in a line: KINOMEscan competition binding. Conditions: compound 10.0 µM.
The target of a further assay is CDK16 (human) (UniProt Q00536). In words: KINOMEscan competition binding. Conditions: compound 10.0 µM.
For the next assay, the target named is CDK7 (human) (UniProt P50613). In words: KINOMEscan competition binding. Particulars: compound 10.0 µM.
For another assay, the target named is CLK2 (human) (UniProt P49760). In words: KINOMEscan competition binding. Particulars: compound 10.0 µM.
The target in another assay is EIF2AK2 (human) (UniProt P19525). In words: KINOMEscan competition binding. Conditions: compound 10.0 µM.
The next assay addresses GAK (human) (UniProt O14976). In words: KINOMEscan competition binding. Particulars: compound 10.0 µM.
Another assay concerns the target HIPK1 (human) (UniProt Q86Z02). The experiment in a line: KINOMEscan competition binding. Conditions: compound 10.0 µM.
A further assay has as its target MAP2K3 (human) (UniProt P46734). The experiment in a line: KINOMEscan competition binding. Particulars: compound 10.0 µM.
A further assay addresses MAPK10 (human) (UniProt P53779). In words: KINOMEscan competition binding. Particulars: compound 10.0 µM.
A further assay concerns the target MAPK14 (human) (UniProt Q16539). The experiment in a line: KINOMEscan competition binding. Conditions: compound 10.0 µM.
The next assay has as its target MAPK15 (human) (UniProt Q8TD08). In words: KINOMEscan competition binding. Particulars: compound 10.0 µM.
The target of another assay is MAPK9 (human) (UniProt P45984). The experiment in a line: KINOMEscan competition binding. Conditions: compound 10.0 µM.
The target in a further assay is MYLK4 (human) (UniProt Q86YV6). The experiment in a line: KINOMEscan competition binding. Conditions: compound 10.0 µM.
The target in the next assay is PAK2 (human) (UniProt Q13177). In words: KINOMEscan competition binding. Conditions: compound 10.0 µM.
Sequence of PAK2 (human) (Q13177 whole entry, looked up): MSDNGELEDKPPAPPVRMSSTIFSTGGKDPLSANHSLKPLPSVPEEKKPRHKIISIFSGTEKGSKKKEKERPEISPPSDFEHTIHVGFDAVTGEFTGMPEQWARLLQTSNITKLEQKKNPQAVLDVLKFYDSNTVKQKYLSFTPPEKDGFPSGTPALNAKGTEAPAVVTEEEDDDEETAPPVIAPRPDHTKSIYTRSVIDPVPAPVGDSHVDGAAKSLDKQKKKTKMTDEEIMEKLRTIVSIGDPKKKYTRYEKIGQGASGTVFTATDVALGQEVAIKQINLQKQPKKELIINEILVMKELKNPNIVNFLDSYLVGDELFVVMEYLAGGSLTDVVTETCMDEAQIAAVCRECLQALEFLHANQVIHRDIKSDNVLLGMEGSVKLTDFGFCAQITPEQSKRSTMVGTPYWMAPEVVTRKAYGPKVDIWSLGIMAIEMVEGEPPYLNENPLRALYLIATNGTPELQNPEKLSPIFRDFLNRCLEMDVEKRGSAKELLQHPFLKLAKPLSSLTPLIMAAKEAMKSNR
For another assay, the target named is PAK7 (human) (UniProt Q9P286). In words: KINOMEscan competition binding. Particulars: compound 10.0 µM.
The next assay has as its target PLK4 (human) (UniProt O00444). In words: KINOMEscan competition binding. Conditions: compound 10.0 µM.
Another assay concerns the target STK17A (human) (UniProt Q9UEE5). The experiment in a line: KINOMEscan competition binding. Conditions: compound 10.0 µM.
For another assay, the target named is STK25 (human) (UniProt O00506). In words: KINOMEscan competition binding. Particulars: compound 10.0 µM.
A further assay deals with TAOK1 (human) (UniProt Q7L7X3). The experiment in a line: KINOMEscan competition binding. Conditions: compound 10.0 µM.
The target of the next assay is TAOK3 (human) (UniProt Q9H2K8). In words: KINOMEscan competition binding. Particulars: compound 10.0 µM.
The target of another assay is TLK2 (human) (UniProt Q86UE8). In words: KINOMEscan competition binding. Conditions: compound 10.0 µM.
In the next assay the target is TTK (human) (UniProt P33981). In words: KINOMEscan competition binding. Conditions: compound 10.0 µM.
Sequence of TTK (human) (P33981 whole entry, looked up): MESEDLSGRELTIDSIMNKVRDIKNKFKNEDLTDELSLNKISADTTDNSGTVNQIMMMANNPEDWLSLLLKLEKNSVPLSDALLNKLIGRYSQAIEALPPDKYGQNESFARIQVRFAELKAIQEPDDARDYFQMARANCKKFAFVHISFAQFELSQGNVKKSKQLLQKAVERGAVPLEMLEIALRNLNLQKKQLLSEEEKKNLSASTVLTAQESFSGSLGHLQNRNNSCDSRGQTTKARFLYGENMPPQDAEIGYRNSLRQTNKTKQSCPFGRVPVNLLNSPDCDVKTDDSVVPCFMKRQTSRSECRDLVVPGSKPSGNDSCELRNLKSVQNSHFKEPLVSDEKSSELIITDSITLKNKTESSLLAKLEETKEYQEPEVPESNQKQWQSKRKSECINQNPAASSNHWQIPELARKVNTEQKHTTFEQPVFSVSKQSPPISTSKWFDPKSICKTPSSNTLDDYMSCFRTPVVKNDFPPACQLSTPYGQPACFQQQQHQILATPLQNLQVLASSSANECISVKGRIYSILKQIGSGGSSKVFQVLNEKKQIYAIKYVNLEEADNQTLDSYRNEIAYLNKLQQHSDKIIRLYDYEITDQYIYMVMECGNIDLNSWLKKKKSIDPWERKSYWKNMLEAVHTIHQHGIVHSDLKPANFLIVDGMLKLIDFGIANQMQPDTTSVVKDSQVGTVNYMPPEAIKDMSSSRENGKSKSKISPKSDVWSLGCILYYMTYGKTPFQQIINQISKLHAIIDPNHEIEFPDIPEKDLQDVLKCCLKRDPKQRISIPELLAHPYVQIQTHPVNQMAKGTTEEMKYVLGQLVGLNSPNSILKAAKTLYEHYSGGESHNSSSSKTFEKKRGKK
Another assay deals with ZAP70 (human) (UniProt P43403). The experiment in a line: KINOMEscan competition binding. Particulars: compound 10.0 µM.

Structures are written as SMILES.

Sequence of RPS6KA2 KD2 (human) (Q15349 whole entry, looked up): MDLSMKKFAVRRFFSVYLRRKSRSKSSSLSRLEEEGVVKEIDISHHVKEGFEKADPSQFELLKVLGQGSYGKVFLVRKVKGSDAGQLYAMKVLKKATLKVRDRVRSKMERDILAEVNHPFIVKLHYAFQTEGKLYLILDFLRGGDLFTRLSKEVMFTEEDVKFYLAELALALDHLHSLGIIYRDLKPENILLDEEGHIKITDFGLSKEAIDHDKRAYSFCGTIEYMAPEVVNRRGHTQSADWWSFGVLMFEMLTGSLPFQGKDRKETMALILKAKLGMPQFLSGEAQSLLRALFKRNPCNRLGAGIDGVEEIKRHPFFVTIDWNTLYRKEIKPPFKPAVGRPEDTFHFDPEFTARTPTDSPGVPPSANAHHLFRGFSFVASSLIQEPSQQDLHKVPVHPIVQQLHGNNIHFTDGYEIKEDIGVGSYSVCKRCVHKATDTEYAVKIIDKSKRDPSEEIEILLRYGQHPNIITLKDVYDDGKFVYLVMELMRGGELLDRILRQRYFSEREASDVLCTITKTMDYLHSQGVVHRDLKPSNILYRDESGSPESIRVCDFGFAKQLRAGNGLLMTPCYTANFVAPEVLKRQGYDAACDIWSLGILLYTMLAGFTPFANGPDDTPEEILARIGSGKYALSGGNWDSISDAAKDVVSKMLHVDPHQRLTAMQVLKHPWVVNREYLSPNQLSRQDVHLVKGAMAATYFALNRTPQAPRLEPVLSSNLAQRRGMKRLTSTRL
Sequence of MAPK8 (human) (P45983 whole entry, looked up): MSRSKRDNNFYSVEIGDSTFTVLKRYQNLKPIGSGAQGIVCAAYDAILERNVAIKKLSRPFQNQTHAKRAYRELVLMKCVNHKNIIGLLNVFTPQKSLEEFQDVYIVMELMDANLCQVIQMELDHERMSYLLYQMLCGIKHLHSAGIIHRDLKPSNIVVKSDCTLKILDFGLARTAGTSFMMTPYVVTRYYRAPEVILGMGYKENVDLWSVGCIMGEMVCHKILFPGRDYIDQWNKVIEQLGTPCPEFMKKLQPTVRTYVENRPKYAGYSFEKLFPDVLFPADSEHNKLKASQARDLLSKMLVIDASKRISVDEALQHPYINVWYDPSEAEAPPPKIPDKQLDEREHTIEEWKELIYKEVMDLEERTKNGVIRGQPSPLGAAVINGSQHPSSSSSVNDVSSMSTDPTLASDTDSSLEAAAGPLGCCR
Sequence of RPS6KA1 KD2 (human) (Q15418 whole entry, looked up): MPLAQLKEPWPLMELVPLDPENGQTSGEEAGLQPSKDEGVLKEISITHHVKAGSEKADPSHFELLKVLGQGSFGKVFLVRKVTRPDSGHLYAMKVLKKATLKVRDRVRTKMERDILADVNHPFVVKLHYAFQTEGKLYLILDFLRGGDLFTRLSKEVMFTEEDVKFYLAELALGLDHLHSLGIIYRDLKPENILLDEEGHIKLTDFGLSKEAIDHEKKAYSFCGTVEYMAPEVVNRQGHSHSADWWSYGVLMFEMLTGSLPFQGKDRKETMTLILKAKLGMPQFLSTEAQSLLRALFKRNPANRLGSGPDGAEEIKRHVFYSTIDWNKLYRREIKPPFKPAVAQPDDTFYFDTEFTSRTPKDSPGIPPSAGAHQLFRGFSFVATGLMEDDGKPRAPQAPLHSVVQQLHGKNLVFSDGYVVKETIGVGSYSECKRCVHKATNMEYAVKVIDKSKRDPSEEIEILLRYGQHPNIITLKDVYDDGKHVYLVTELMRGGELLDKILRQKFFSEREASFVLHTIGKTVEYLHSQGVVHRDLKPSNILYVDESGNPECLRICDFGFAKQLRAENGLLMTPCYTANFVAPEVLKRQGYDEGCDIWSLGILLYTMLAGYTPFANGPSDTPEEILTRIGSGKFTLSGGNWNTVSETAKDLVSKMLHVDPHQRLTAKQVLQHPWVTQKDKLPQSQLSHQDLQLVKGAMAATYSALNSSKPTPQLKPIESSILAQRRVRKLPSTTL

Usually IC50 stands for the point on the concentration scale where inhibition reaches its midpoint. A lower IC50 goes with higher potency. With `O=C1NC(=O)/C(=C/c2ccc(-c3ccc4c(C(=O)Nc5cccc(C(F)(F)F)c5)cccc4c3)o2)S1`, the kinase still bound, per cent of control came to 28% on CDC42BPB (human); 33% on CSNK2A1 (human); 33% on CSNK2A2 (human); 21% at DDR1 (human); 30% at MAPK8 (human); 34% at MKNK2 (human). The kinase still bound, per cent of control at PIM1 (human) [1] stood at 14%; on PIM2 (human) [2], 0.75%; on PIM3 (human), 11%; on RPS6KA1 KD2 (human), 23%; at RPS6KA2 KD2 (human) it was 31%; on RPS6KA6 KD2 (human), 25%. Besides, the kinase still bound, per cent of control turned out to be 7.4% on STK17B (human), 29% on STK24 (human) and 24% on TLK1 (human). In addition, the IC50 against PIM1 (human) [3] was 9.02 µM; at PIM2 (human) [4], 2.91 µM.
For `CSC1=NC(=O)/C(=C/c2ccc(-c3ccc(S(N)(=O)=O)cc3)o2)S1`, the kinase still bound, per cent of control at AAK1 (human) was found to be 14%; at CDK16 (human), 0.1%; on CDK7 (human) it was 1.4%; at CLK2 (human), 9.8%; on EIF2AK2 (human), 17%; on GAK (human), 6.7%. For the same compound, the kinase still bound, per cent of control worked out at 6.5% on HIPK1 (human); 14% on MAP2K3 (human); 22% at MAPK10 (human); 19% at MAPK14 (human); 29% on MAPK15 (human); 31% on MAPK8 (human). Further, the kinase still bound, per cent of control at MAPK9 (human) turned out to be 6%; at MYLK4 (human), 19%; on PAK2 (human) it was 34%; on PAK7 (human), 28%; at PIM1 (human) [1], 1.6%; on PIM2 (human) [2] it was 3%. Besides, the kinase still bound, per cent of control on PIM3 (human) is 1.8%; on PLK4 (human) it was 0.05%; on RPS6KA1 KD2 (human), 12%; at RPS6KA2 KD2 (human), 5.3%; on RPS6KA6 KD2 (human) it was 18%; at STK17A (human) it was 2.5%. Moreover, the kinase still bound, per cent of control on STK25 (human) is 32%; on TAOK1 (human), 3.6%; on TAOK3 (human) it was 24%; on TLK2 (human), 28%; on TTK (human), 16%; at ZAP70 (human) it was 32%.
